# Patent US20150057261A1, “AZETIDINE DERIVATIVES AS SPHINGOSINE-1 PHOSPHATE RECEPTORS MODULATORS” (Allergan, Inc., priority 2013, published 2015)
# Biological target: T1, human S1P1 receptor (Homo sapiens, UniProt P21453)
# T1 construct: expressed in transfected cells; membranes used
# Assay: GTP γ35S binding assay for S1P1 activity
# Assay type: biochemical
# Conditions: membranes of cells stably expressing the S1P1 receptor
# Procedure: Compounds were synthesized and tested for S1P1 activity using the GTP γ^35S binding assay. These compounds may be assessed for their ability to activate or block activation of the human S1P1 receptor in cells stably expressing the S1P1 receptor.
# GTP γ^35S binding was measured in the medium containing (mM) HEPES 25, pH 7.4, MgCl2 10, NaCl 100, dithiothreitol 0.5, digitonin 0.003%, 0.2 nM GTP γ^35S, and 5 μg membrane protein in a volume of 150 μl. Test compounds were included in the concentration range from 0.08 to 5,000 nM unless indicated otherwise. Membranes were incubated with 100 μM 5′-adenylylimidodiphosphate for 30 min, and subsequently with 10 μM GDP for 10 min on ice. Drug solutions and membrane were mixed, and then reactions were initiated by adding GTP γ^35S and continued for 30 min at 25° C. Reaction mixtures were filtered over Whatman GF/B filters under vacuum, and washed three times with 3 mL of ice-cold buffer (HEPES 25, pH7.4, MgCl2 10 and NaCl 100). Filters were dried and mixed with scintillant, and counted for ^35S activity using a β-counter. Agonist-induced GTP γ^35S binding was obtained by subtracting that in the absence of agonist. Binding data were analyzed using a non-linear regression method. In case of antagonist assay, the reaction mixture contained 10 nM […] in the presence of test antagonist at concentrations ranging from 0.08 to 5000 nM.
# T1 sequence (P21453 whole entry): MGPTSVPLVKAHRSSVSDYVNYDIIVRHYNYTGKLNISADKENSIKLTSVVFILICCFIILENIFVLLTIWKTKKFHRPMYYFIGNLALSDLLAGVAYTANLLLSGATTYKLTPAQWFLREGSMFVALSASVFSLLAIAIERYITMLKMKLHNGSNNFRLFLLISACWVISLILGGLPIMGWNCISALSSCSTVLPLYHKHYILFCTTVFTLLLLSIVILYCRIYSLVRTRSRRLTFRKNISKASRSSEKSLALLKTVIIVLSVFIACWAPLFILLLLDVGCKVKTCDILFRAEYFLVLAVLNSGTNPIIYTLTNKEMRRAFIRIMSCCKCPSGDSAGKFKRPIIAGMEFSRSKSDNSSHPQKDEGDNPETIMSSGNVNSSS
row,SMILES,EC50 [nM]
1,"Cc1ccc(CC(CCCCc2ccc(CN3CC(C(=O)O)C3)cc2)c2cccc(Cl)c2)cc1C (stereo not drawn) [Compound 1, 1-{4-[5-(3-Chlorophenyl)-6-(3,4-dimethylphenyl)hexyl]benzyl}azetidine-3-carboxylic acid]",64.5
2,"Cc1ccc(CC(CCCc2ccc(CN3CC(C(=O)O)C3)cc2)c2cccc(Cl)c2)cc1C (stereo not drawn) [Compound 2, 1-{4-[4-(3-Chlorophenyl)-5-(3,4-dimethylphenyl)pentyl]benzyl}azetidine-3-carboxylic acid]",17.1
3,"Cc1ccc(CC(CCCCc2ccc(CN3CC(C(=O)O)C3)cc2)c2cc(F)cc(F)c2)cc1C (stereo not drawn) [Compound 3, 1-{4-[5-(3,5-Difluorophenyl)-6-(3,4-dimethylphenyl)hexyl]benzyl}azetidine-3-carboxylic acid]",7.33
